These results are taken from patent US6573284B1, “Method of treating melanoma” (priority 1996, dated 2003).

In one series the test system is mushroom tyrosinase. The series is described as follows: Oximetry: oxidation of substrates by tyrosinase. It is filed as biochemical. The conditions noted are these: 100 μM substrate, 165 units of tyrosinase/ml, room temperature; compared with tyrosine.
Series [1] concerns human melanoma (C32, G361 and STMl1la) and nonmelanoma derived cell lines (Caki-2 and CHO). It is filed as cell-based.
A further series deals with tyrosinase. Description: Release of drug from prodrug upon treatment with tyrosinase (TLC, GCMS). It counts as biochemical. To be noted: DMSO/phosphate buffer pH 7.2, 25° C., 1 hour; TLC and GCMS.

“Also recorded” adds a separate entry of the source.

Consider `COc1ccc(O)cc1` [4-Hydroxyanisole, 4-hydroxyanisole], for which the “oxidation by tyrosinase (utilization of oxygen with respect to time)” value (“oxidation by tyrosinase” for short) in the series on mushroom tyrosinase is given as “oxidised, but at a lower rate than tyrosine”. By melting point is commonly meant the temperature, or range, at which the solid turns liquid. For `O=C(NCCc1ccc(O)c(O)c1)Oc1ccc(N(CCCl)CCCl)cc1` [Compound A, N-(N-bis-chlorethyl-4-amino-phenyloxycarbonyl)-3-hydroxy-tyramine], the melting point was 80 °C (dec.). In the series with mushroom tyrosinase, the “oxidation by tyrosinase” value was “oxidised by tyrosinase, although the rate of the reaction was lower than for the normal substrate”. The “relative toxicity (inverse of the IC50)” value in series [1] is “relatively non-toxic; also recorded: increasing toxicity with tyrosinase activity”.

On to `NCCc1ccc(O)c(O)c1` [Compound B], for which the “relative toxicity (inverse of the IC50)” value in series [1] is “essentially non-toxic”. On to `CC(=O)N[C@@H](Cc1ccc(O)cc1)C(=O)O` [N-acetyl tyrosine], for which, in the series on mushroom tyrosinase, the “oxidation by tyrosinase” value is “oxidised, but at a lower rate than tyrosine”.

Take `O=C(NCCc1ccc(O)cc1)Oc1ccc(N(CCCl)CCCl)cc1` [Prodrug (1)]: in the series on tyrosinase, the “release of mustard drug upon tyrosinase treatment” value is given as “a component of identical Rf to the authentic mustard drug had been produced”.
